# Test results taken from publication PMC2739411 (Anesthesiology, 2009).
# Biological target: γ-aminobutyric acid type A (GABAA) receptor α1β2γ2L (Homo sapiens, UniProt P14867+P47870)
# Assay: two-electrode voltage clamp in oocytes
# Format: cell-based
# Conditions: read-out: % enhancement of EC5-10 GABA current at 8 μM
# Sequence of γ-aminobutyric acid type A (GABAA) receptor α1β2γ2L (P47870 26-512): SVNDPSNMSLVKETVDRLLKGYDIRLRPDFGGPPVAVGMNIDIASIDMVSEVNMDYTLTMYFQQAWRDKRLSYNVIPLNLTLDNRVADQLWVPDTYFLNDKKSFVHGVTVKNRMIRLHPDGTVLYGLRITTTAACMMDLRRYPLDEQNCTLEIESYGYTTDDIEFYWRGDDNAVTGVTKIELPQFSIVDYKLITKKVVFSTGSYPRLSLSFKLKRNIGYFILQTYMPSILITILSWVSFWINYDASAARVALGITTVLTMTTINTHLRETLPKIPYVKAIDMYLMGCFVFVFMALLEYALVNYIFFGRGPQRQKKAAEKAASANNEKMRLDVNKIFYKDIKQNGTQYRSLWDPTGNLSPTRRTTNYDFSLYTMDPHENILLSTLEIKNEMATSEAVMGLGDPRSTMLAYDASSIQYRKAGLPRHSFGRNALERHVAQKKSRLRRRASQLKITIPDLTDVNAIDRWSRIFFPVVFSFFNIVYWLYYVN
# Sequence of γ-aminobutyric acid type A (GABAA) receptor α1β2γ2L (P14867 28-456): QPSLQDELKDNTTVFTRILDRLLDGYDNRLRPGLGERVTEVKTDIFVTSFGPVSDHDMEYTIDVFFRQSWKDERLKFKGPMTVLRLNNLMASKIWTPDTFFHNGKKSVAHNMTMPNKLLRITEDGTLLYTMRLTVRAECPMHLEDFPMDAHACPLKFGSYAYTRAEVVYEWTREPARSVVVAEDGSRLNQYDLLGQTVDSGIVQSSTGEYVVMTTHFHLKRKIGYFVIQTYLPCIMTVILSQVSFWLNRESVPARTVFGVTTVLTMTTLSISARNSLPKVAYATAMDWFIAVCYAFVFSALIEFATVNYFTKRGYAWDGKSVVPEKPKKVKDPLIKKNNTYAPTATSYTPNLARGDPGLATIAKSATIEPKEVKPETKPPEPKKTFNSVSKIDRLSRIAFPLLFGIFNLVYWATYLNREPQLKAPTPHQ
# Sequence of γ-aminobutyric acid type A (GABAA) receptor α1β2γ2L (P18507 40-475 partner): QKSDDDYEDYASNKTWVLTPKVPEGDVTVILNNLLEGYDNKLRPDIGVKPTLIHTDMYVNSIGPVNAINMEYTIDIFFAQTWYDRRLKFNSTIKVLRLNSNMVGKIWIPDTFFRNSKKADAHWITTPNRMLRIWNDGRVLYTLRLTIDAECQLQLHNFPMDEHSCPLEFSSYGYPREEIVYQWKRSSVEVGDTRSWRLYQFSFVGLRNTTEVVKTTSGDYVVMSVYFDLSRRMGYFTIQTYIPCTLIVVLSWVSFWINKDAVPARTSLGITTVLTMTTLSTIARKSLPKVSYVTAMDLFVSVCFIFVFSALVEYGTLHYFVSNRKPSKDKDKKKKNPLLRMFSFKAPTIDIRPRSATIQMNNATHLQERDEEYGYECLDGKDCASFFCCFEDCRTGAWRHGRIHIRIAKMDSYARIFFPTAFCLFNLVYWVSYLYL
smiles,measurement,value
"COC(=O)CCOC(=O)c1cncn1[C@H](C)c1ccccc1 [compound 3, (R)-3-methoxy-3-oxopropyl1-(1-phenylethyl)-1H-imidazole-5-carboxylate]",activation at 8 µM,450 ± 130%
